Test results published in patent US10975033B2, “Methods for treating inflammation and hypertension with γ-ketoaldehyde skavengers” (Vanderbilt University, priority 2011, dated 2021).

Columns and labels:
[1] = test system: carrageenin-induced paw edema; experiment: Carrageenin-induced paw edema rat model; assay type: in vivo; details: for mean reduction in edema: 3 hrs after injection of carrageenin, FIG. 7
Source text: As indicated above, one embodiment of the present invention is the use of salicylamine to treat inflammation. […] The carrageenin-induced paw edema rat model has been probably the most utilized animal model to screen for potency of NSAIDs and other antiinflammatory compounds to inhibit inflammation for decades. For example, see Proc Soc Exp Biol Med 111:544 in 1962 by Winter C A et. al., entitled: “Carrageenin-induced edema of the hind paw of the rat as an assay for antiinflammatory drugs”. Importantly, it has been shown that this model is one of the most robust predictors of clinical potency of NSAIDs^54.
Our initial experiments tested the ability of a single dose of salicylamine (200 mg/kg), administered intraperitoneally, to reduce paw edema at various time points. Carrageenan (100 μl of a 1% solution in saline) was injected into the hind right footpad. Footpad volume was measured in a water displacement plethysmometer before injection of carrageenin and at 2 hr, 3 hr, and 4 hr post-carrageenin. Edema was calculated as footpad volume change (ml) as a percentage of original paw volume for each individual animal.
The efficacy an analog of salicylamine, 5-methyl-salicylamine, to inhibit carrageenin-induced paw edema was accessed at 3 hrs after injection of carrageenin at two doses, 200 and 100 mg/kg ip (FIG. 7).

[2] = test system: neutrophil cell counts in lung bronchoalveolar lavage fluid; experiment: Neutrophil cell counts in lung bronchoalveolar lavage fluid of LPS-injected mice; assay type: in vivo; details: ip at 1 hr, 3 hrs, 5 hrs after LPS; determined 8 hrs after LPS; FIG. 11
Method: An in vivo experiment was performed to explore whether treatment with salicylamine would down regulate the activity of NF-kB in animals injected with LPS. The animals we used were mice with a luciferase NF-kB reporter gene developed by Dr. Timothy Blackwell mentioned previously. LPS was injected into mice and salicylamine was injected intraperitoneally at 1 hr, 3 hrs, and 5 hrs after the LPS injection. Lung NF-kB luciferase assay and neutrophil cell counts in lung bronchoalveolar lavage fluid (BAL) were then determined 8 hrs after the LPS injection. There was a reduction in both (a) activity of NF-kB (FIG. 10) (b) and neutrophil cell counts (FIG. 11), both of which are indicative of a pronounced anti-inflammatory effect of salicylamine treatment in these animals.

[3] = test system: NF-κB; experiment: LPS-induced NF-κB expression in NF-κB reporter macrophages (luciferase reporter assay); assay type: cell-based; details: varying concentrations, FIG. 9
Source text: The effect of γ-KAs and salicylamine on induction of NF-κB was explored using a novel luciferase reporter assay to quantitatively monitor the induction of expression of NF-κB both in vitro in cells and in vivo^55; 56. NF-κB is required for maximal induction of many cytokines which are thought to be important in the generation of the acute inflammatory responses^57. Accordingly, the downstream effects of an agent that suppresses the induction of NF-κB would be a reduction in the level of inflammation. The first question we asked was does exposure of cells to γ-KAs induce the expression of NF-κB using the luciferase reporter assay mentioned above. […] The abbreviation RLU in this figure stands for Relative Light Units that were measured by luciferase assay.
Another embodiment of the present invention is treatment with varying concentrations of salicylamine (SA) would suppress lipopolysaccharide (LPS) induced expression of NF-κB in NF-κB reporter macrophages.

[4] = test system: hAPO4 mice; experiment: Cognitive deficits in hAPO4 mouse model of human Alzheimer's disease; assay type: in vivo
Source text: The present inventors have shown that levels of γ-KA adducts are increased in disease affected areas of whole brain tissue from patients with Alzheimer's disease. […] The present inventors accessed the ability of the γ-KA scavenger salicylamine to prevent the development of cognitive abnormalities in an animal model of human Alzheimer's disease, hAPO4 mice.

[5] = Reactivity of scavenger with γ-KAs relative to lysine; details: more reactive than lysine
Source text: Other embodiments of the present invention include the use of analogs of pyridoxamine that are less polar but retain the critical molecular structure of this molecule responsible for intercepting γ-KAs^49. One example is 2-hydroxy-benzylamine (salicylamine, SA) which is 980 times more reactive than lysine with γ-KAs.
It is important to emphasize that the use of salicylamine is one example of the present invention. Other embodiments include compounds that intercept γ-KA scavengers on various biological processes, their analogs and salt forms thereof. Different non-limiting examples of compounds of the present invention are listed below, which intercept γ-KAs with varying degrees of hydrophilicity. Additionally, to solubilize the more hydrophobic compounds, they have been converted them to an acetate salt. These react with γ-KAs in vitro at a rate more than 2 orders of magnitude greater than the potency of the reaction of γ-KAs with the ε-amine of lysine^49. […] Included are analogs, salts, and pharmaceutical compositions comprising compounds that intercept γ-KA scavengers on various biological processes.

[6] = test system: COX enzymes; details: cited from earlier work
[7] = test system: cells exposed to a lethal concentration of the oxidant t-butylhydroperoxide; experiment: Protection of cells against a lethal concentration of t-butylhydroperoxide (FIG. 5); assay type: cell-based
Source text: One example is shown in FIG. 5, where cells are exposed to a lethal concentration of the oxidant t-butylhydroperoxide. […] Accordingly, we suspected that the γ-KAs generated by the COX pathways would likely be very pro-inflammatory, which might explain the underlying mechanism by which NSAID's exert some their anti-inflammatory effects.

[8] = Pharmacokinetics of salicylamine; assay type: in vivo

| plasma concentrations compared with tissue concentrations ([8]; in vivo) | half-life ([8]; plasma, read-out: half life (t1/2) in plasma) | SMILES | mean reduction in edema ([1]; 100 mg/kg ip) | mean reduction in edema ([1]; 200 mg/kg ip) | neutrophil cell counts in BAL [2] | LPS induced expression of NF-κB [3] | prevention of development of cognitive deficits [4] | reactivity with γ-KAs relative to lysine [5] | inhibition of COX (cyclooxygenase) enzymes [6] | inhibition of carrageenin-induced paw edema ([1]; single dose 200 mg/kg intraperitoneally, 2 hr, 3 hr, 4 hr post-carrageenin, FIG. 6) | persistence of decrease in paw edema after injection of carrageenin ([1]; single intraperitoneal injection, 200 mg/kg) | protection against cell death [7] |
| --- | --- | --- | --- | --- | --- | --- | --- | --- | --- | --- | --- | --- |
| – | – | Cc1ccc(O)c(CN)c1 [5-methyl-salicylamine] | 29% | 60% | – | – | – | – | – | – | – | – |
| lower than tissue concentrations | ~1 h | NCc1ccccc1O [salicylamine, 2-hydroxy-benzylamine] | – | – | reduction | concentration dependent stepwise reduction | almost completely prevented | 980 times | None of the compound listed below, including salicylamine, inhibit cyclooxygenase enzymes | marked inhibition | at least 4 hrs | almost completely protected against cell death |
